Laboratory results reported in publication PMC10709440, “High-throughput ligand profile characterization in novel cell lines expressing seven heterologous insect olfactory receptors for the detection of volatile plant biomarkers” (Scientific Reports, 2023).

How the values were obtained:
Assay in all cases: cell-based
Design in all cases: GCaMP6 calcium fluorescence in stable HEK293 OR+ORCO lines; peak dF normalised to 50 uM VUAA1 (=1)
[1] = biological target: T1, Drosophila OR10a (Drosophila melanogaster, UniProt Q9VYZ1); details: relative to 50 uM VUAA1 response, below 0.05 set to 0; for activity at 1 µM / activity at 10 µM / activity at 100 µM: HEK293, read-out: % activation; for % activation: agonist
T1 construct: expressed in transfected cells
T1 sequence (Q9VYZ1 1-406): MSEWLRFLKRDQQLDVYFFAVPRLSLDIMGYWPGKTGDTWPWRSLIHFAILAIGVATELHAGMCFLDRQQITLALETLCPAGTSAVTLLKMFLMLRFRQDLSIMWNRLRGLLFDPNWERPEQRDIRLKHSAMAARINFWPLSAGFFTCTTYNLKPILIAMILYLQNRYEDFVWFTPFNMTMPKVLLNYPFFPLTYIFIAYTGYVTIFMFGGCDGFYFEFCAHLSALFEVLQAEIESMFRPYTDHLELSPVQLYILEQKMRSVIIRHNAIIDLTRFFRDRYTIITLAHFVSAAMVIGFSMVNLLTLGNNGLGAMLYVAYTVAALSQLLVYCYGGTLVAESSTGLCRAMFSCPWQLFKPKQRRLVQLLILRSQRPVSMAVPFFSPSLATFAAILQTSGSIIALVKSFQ
T1 sequence (Q9VNB5 1-486 partner): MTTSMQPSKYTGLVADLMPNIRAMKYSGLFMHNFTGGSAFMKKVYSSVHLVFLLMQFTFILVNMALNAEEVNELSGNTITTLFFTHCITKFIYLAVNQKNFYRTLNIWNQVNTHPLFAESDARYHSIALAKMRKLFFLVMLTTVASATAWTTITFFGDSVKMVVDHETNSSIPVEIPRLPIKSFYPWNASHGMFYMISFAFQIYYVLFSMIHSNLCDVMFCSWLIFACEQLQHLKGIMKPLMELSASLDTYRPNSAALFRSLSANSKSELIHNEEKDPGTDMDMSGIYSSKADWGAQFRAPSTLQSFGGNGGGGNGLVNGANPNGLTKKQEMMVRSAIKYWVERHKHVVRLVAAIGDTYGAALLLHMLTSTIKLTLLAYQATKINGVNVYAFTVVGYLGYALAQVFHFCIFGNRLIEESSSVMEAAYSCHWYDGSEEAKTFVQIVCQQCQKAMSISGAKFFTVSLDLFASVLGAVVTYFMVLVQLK
Procedure: (§1) Twelve thousand to 18,000 cells were plated into each well of a black wall, transparent bottom 384-well microplate (Greiner) 48 h or 72 h before the measurements and were simultaneously treated with 1 μg/mL doxycycline. […] The plate has 24 columns, thus we could record responses in up to eight different cell lines in each plate. On the day of the experiment, the growth medium was replaced with 20 µL assay buffer/well (140 mM NaCl, 5 mM KCl, 2 mM CaCl2, 1 mM MgCl2, 5 mM HEPES-Na, 20 mM glucose, pH 7.3, 340 mOsm). […] Baseline fluorescence (F0) was recorded for 5 s, after which 7 µL VOC buffer (140 mM NaCl, 5 mM KCl, 2 mM CaCl2, 1 mM MgCl2, 5 mM HEPES-Na, 31 mM glucose, 0.1% DMSO, pH 7.3, 340 mOsm) was injected into each well in one row and the fluorescence response was recorded for an additional 30 s, at a rate of one read/sec. VOC solutions (VOC buffer with 4× concentration of the final measured VOC concentration, 9 µL/well was injected) were measured on the same wells in a second round with the same protocol. Each individual concentration of a specific VOC sample was recorded in three wells for the same cell line on the same microplate. The raw data were exported in xls file format, F0 and FMAX values, and the fluorescence intensity changes (∆F) were calculated in Excel (Microsoft) (Supplementary file Data summary.xlsx) using the following equation: ΔF=FMAX-F0/F0 (see also Fig. 1C). On each plate, we recorded the response of each cell line to 50 µM VUAA1. The average of these ∆F values of each cell line were used to calculate the VUAA1-normalized values for the rest of the plate, by dividing VOC response ∆F values by the average VUAA1 response ∆F value of the corresponding OR cell line. Each VOC-OR combination was measured three times as tec The recorded FMAX, F0, ∆F, VUAA1-normalized ∆F values, as well as the OR name, the name of the tested sample, and the final concentration for each well were copied into supplementary file Data summary.xlsx, that was used to summarize all the plates recorded. Here, the averages of the measurements were calculated for each receptor-VOC-concentration combination. […] Each VOC was measured at 1, 10, and 100 µM final concentration on each receptor. VUAA1-normalized response was calculated as described in methods.

[2] = biological target: T2, Drosophila OR49b (Drosophila melanogaster, UniProt Q9V6H2); details: HEK293; relative to 50 uM VUAA1 response; below 0.05 set to 0; read-out: % activation
T2 construct: expressed in transfected cells
T2 sequence (Q9V6H2 1-375): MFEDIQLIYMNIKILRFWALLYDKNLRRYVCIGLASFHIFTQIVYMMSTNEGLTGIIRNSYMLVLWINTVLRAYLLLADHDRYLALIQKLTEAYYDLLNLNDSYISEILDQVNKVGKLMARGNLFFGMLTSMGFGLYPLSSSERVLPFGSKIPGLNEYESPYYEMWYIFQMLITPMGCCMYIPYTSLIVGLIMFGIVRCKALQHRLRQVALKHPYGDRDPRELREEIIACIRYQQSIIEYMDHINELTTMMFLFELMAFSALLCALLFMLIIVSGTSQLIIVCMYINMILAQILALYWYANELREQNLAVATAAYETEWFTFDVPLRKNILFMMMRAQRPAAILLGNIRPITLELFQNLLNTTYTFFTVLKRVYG
T2 sequence (Q9VNB5 1-486 partner): T1 sequence (Q9VNB5 1-486 partner)
Procedure: as §1

[3] = biological target: T3, Drosophila OR85b (Drosophila melanogaster, UniProt Q9VHQ7); details: relative to 50 uM VUAA1 response, below 0.05 set to 0; for activity at 1 µM / activity at 10 µM / activity at 100 µM: HEK293, read-out: % activation; for % activation: agonist
T3 construct: expressed in transfected cells
T3 sequence (Q9VHQ7 1-390): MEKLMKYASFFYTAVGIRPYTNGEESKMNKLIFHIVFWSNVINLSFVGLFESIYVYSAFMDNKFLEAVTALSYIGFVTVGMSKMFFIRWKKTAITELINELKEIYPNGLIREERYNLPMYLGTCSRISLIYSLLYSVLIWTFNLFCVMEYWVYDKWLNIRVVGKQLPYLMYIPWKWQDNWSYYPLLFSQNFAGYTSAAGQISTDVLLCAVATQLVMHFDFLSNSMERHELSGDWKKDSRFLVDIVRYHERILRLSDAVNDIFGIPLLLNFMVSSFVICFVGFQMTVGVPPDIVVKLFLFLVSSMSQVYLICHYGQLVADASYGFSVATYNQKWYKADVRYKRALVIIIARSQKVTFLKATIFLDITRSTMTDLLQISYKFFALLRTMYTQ
T3 sequence (Q9VNB5 1-486 partner): T1 sequence (Q9VNB5 1-486 partner)
Procedure: as §1

Structure (SMILES)	activity at 1 µM [2] [%]	activity at 100 µM [2] [%]	activity at 1 µM [3] [%]	activity at 10 µM [3] [%]	activity at 100 µM [3] [%]	other results
C=C(C)C1CCC2(C)OC2C1 (single isomer, unassigned; (+)) [(+)-limonene oxide]	0	0	0	0	0	activity at 1 µM [1]: 0%; activity at 10 µM [1]: 0%; activity at 100 µM [1]: 0%; activity at 10 µM [2]: 0%
C=C1CC[C@@]23C[C@@H]1C(C)(C)[C@@H]2CC[C@H]3C [(+)-beta-cedrene]	0	0	0	0	0	activity at 1 µM [1]: 0%; activity at 10 µM [1]: 0%; activity at 100 µM [1]: 0%; activity at 10 µM [2]: 0%
C=C1[C@H]2CC[C@@H]3[C@H]2C(C)(C)CCC[C@]13C [(+)-longifolene]	7.75	0	8.34	10.9	0	activity at 1 µM [1]: 8.31%; activity at 10 µM [1]: 5.37%; activity at 100 µM [1]: 0%; activity at 10 µM [2]: 0%
C=C(C)[C@H]1CC=C(C)CC1 [(R)-(+)-limonene]	0	0	–	–	–	activity at 1 µM [1]: 0%; % activation ([1]; 10 µM, 10 / OR10a): 0.1196%; activity at 10 µM [2]: 0%; % activation ([3]; 10 µM, 10 / OR85b): 0%; % activation ([3]; 100 µM, 100 / OR85b): 0%; % activation ([3]; 1 / OR85b, 1 µM): 0%
CC1=CCC[C@@]2(C)[C@@H]3CC[C@]12CC3(C)C [(−)-α-neoclovene]	–	–	–	–	–	activity at 10 µM [1]: 13.1%; activity at 100 µM [1]: 12.4%
CC/C=C\CCOC(C)=O [Z-3-hexenyl acetate]	–	–	14.5	–	–	–
C=C(C)[C@H]1CC=C(C)CC1 [limonene]	–	–	–	–	–	% activation ([1]; 10 µM, 10 / OR10a): 0%; % activation ([1]; 100 µM, 100 / OR10a): 0.05729%; % activation ([3]; 10 µM, 10 / OR85b): 0.08814%; % activation ([3]; 100 µM, 100 / OR85b): 0.06443%; % activation ([3]; 1 / OR85b, 1 µM): 0.07022%
C=CC(C)(O)CCC=C(C)C (stereo not shown) [linalool]	–	–	–	–	6.3	–
Cc1cccc(C)c1 [m-xylene]	–	–	–	–	8.8	–
COC(=O)c1ccccc1 [methyl benzoate]	13.4	–	–	–	–	–
Cc1ccccc1C [o-xylene]	–	–	8.04	–	8.27	–
Cc1ccc(C(C)C)cc1 [p-cymene]	–	–	–	11.7	9.05	–
Cc1ccc(C)cc1 [p-xylene]	–	–	–	15.2	6.07	–
CCCCCOC(C)=O [pentyl acetate]	7.95	6.1	–	–	–	–
OCCc1ccccc1 [phenethyl alcohol]	–	9.32	9.88	7.58	–	–
CCCOC(C)=O [propyl acetate]	–	–	5.38	–	–	–
C=C1CCC2(C(C)C)CC12 (stereo not shown) [sabinene]	–	–	6.47	–	8.7	–
CCCCCCCCCCCCCC [tetradecane]	6.86	–	9.72	8.44	–	activity at 10 µM [2]: 5.2%
